In ChEMBL document CHEMBL5518208 (J Med Chem, 2024):

How the values were obtained:
Type in all cases: ADME, organism-based
[1] = Cmax in male ICR mouse at 25 mg/kg, po measured upto 24 hrs by LC-MS/MS analysis; settings: in vivo
[2] = Observed AUC infinity in male ICR mouse at 25 mg/kg, po measured upto 24 hrs by LC-MS/MS analysis; settings: in vivo
[3] = Drug concentration in BALB/c mouse plasma at 100 mg/kg, sc measured after 1 hrs by LC-MS/MS analysis
[4] = Tmax in male ICR mouse at 25 mg/kg, po measured upto 24 hrs by LC-MS/MS analysis; settings: in vivo
[5] = Observed AUC infinity in male ICR mouse at 5 mg/kg, iv measured upto 24 hrs by LC-MS/MS analysis; settings: in vivo
[6] = Drug concentration in BALB/c mouse plasma at 100 mg/kg, sc measured after 4 hrs by LC-MS/MS analysis
[7] = AUC last in male ICR mouse at 25 mg/kg, po measured upto 24 hrs by LC-MS/MS analysis; settings: in vivo
[8] = Observed MRT infinity in male ICR mouse at 5 mg/kg, iv measured upto 24 hrs by LC-MS/MS analysis; settings: in vivo
[9] = Drug concentration in BALB/c mouse plasma at 100 mg/kg, sc measured after 0.5 hrs by LC-MS/MS analysis
[10] = Half life in male ICR mouse at 5 mg/kg, iv measured upto 24 hrs by LC-MS/MS analysis; settings: in vivo
[11] = Observed volume of distribution at steady state in male ICR mouse at 5 mg/kg, iv measured upto 24 hrs by LC-MS/MS analysis; settings: in vivo, read-out: Vdss
[12] = Half life in male ICR mouse at 25 mg/kg, po measured upto 24 hrs by LC-MS/MS analysis; settings: in vivo
[13] = Observed clearance in male ICR mouse at 5 mg/kg, iv measured upto 24 hrs by LC-MS/MS analysis; settings: in vivo
[14] = Observed MRT infinity in male ICR mouse at 25 mg/kg, po measured upto 24 hrs by LC-MS/MS analysis; settings: in vivo
[15] = Drug concentration in BALB/c mouse plasma at 100 mg/kg, sc measured after 2 hrs by LC-MS/MS analysis
[16] = AUC last in male ICR mouse at 5 mg/kg, iv measured upto 24 hrs by LC-MS/MS analysis; settings: in vivo

O=c1ccc2c(N3C[C@@H]4[C@@H](CCP(=O)(O)O)[C@@H]4C3)ncnc2[nH]1
Cmax [1]: 352 ng/mL
AUC(0-inf) [2]: 965 ng·h/mL
concentration at 1 h [3]: 26 µM
Tmax [4]: 45 min
AUC(0-inf) [5]: 4400 ng·h/mL
concentration at 4 h [6]: 0.04 µM
AUC(0-t) at 24 h [7]: 932 ng·h/mL
MRT inf [8]: 18.6 min
concentration at 0.5 h [9]: 112 µM
half-life [10]: 60.6 min
Vd [11]: 0.373 L/kg
half-life [12]: 33.6 min
clearance [13]: 21.6 mL/min/kg
MRT inf [14]: 156 min
concentration at 2 h [15]: 1.5 µM
AUC(0-t) at 24 h [16]: 4390 ng·h/mL
